Drawing on PMC6326728, “eIF2B activator prevents neurological defects caused by a chronic integrated stress response” (eLife, 2019), this text covers inhibition for one molecule.

Common to all, as to assay: biochemical
Holding throughout (parameters): CEREP panel radioligand binding displacement, % inhibition of control specific binding by 10 uM 2BAct

One test deals with T1, A3 (h) (Homo sapiens, UniProt P0DMS8).
T1 construct: gene ADORA3
Particulars: Type=Agonist radioligand; read-out: % inhibition of Control specific binding. The procedure: (§1) Supplementary file elife-42940-supp1.xlsx: Supplementary file 1. (A) Binding of 2BAct at 10 μM to the CEREP panel of receptors/enzymes/ion channels. Compound binding was calculated as a % inhibition of the binding of a radioactively labeled ligand specific for each target. Results showing inhibition or stimulation higher than 50% are considered to represent significant effects of the test compound. (B) Pharmacokinetic data from 2BAct dosing in mice. (C) GO Biological Processes identified by enrichment analysis of RNA-seq data. (D) List of genes used for enrichment analysis of scRNA-seq data.

For the next test, the target named is T2, dopamine transporter (h) (Homo sapiens, UniProt Q01959).
T2 construct: gene SLC6A3
T2 sequence (Q01959 whole entry): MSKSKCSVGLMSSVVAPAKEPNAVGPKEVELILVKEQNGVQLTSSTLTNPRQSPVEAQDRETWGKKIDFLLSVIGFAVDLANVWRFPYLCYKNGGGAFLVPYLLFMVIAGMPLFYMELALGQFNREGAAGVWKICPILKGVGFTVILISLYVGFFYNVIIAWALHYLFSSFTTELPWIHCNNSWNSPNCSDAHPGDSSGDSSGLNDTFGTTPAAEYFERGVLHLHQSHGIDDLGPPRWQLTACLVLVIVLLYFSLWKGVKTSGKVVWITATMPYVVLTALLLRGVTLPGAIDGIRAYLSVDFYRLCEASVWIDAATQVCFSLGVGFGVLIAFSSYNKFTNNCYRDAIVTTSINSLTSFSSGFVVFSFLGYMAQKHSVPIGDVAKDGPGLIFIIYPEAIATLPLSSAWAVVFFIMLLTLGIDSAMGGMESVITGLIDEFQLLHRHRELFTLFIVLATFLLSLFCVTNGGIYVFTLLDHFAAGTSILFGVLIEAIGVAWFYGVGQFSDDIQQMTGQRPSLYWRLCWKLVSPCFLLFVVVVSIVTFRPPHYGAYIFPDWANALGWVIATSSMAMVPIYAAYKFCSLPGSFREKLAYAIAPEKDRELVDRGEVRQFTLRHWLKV
Particulars: Type=Antagonist radioligand; read-out: % inhibition of Control specific binding. On the procedure:
as §1

In a further test the target is T3, M3 (h) (Homo sapiens, UniProt P20309).
T3 construct: gene CHRM3
Particulars: Type=Antagonist radioligand; read-out: % inhibition of Control specific binding. The procedure: as §1

The target in the next test is T4, M2 (h) (Homo sapiens, UniProt P08172).
T4 construct: gene CHRM2
T4 sequence (P08172 whole entry): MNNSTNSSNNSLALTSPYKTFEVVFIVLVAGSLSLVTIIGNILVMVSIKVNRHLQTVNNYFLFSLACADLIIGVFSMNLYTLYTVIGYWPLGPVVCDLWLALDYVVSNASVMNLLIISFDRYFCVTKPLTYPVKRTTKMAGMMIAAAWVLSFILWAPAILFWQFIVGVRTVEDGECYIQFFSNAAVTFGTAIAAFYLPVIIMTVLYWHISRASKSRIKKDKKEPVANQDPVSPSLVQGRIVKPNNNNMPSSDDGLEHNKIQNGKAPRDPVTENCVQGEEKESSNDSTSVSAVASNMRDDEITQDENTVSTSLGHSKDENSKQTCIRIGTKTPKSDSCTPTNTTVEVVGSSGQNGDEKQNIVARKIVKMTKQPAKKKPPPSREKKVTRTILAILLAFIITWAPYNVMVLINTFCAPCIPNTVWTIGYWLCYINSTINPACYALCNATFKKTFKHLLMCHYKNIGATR
Particulars: Type=Antagonist radioligand; read-out: % inhibition of Control specific binding. On the procedure: as §1

The next test addresses T5, 5-HT3 (h) (Homo sapiens, UniProt P46098).
T5 construct: gene HTR3A
To be noted: Type=Antagonist radioligand; read-out: % inhibition of Control specific binding. On the procedure: as §1

Another test deals with T6, 5-HT transporter (h) (Homo sapiens, UniProt P31645).
T6 construct: gene SLC6A4
To be noted: Type=Antagonist radioligand; read-out: % inhibition of Control specific binding. The procedure: as §1

The target of another test is T7, D2S (h) (Homo sapiens, UniProt P14416).
T7 construct: gene DRD2; short isoform (D2S)
Particulars: Type=Antagonist radioligand; read-out: % inhibition of Control specific binding. On the procedure:
as §1

The target of test [1] is T8, A2b (h) (Homo sapiens, UniProt P29275).
T8 construct: gene ADORA2B
To be noted: Type=Antagonist radioligand; read-out: % inhibition of Control specific binding. The procedure:
as §1

A further test has as its target T9, CB2 (h) (Homo sapiens, UniProt P34972).
T9 construct: gene CNR2
Particulars: Type=Agonist radioligand; read-out: % inhibition of Control specific binding. The procedure: as §1

Another test concerns the target T10, M4 (h) (Homo sapiens, UniProt P08173).
T10 construct: gene CHRM4
Particulars: Type=Antagonist radioligand; read-out: % inhibition of Control specific binding. The procedure: as §1

For test [2], the target named is T11, a2B (h) (Homo sapiens, UniProt P18089).
T11 construct: gene ADRA2B
T11 sequence (P18089 whole entry): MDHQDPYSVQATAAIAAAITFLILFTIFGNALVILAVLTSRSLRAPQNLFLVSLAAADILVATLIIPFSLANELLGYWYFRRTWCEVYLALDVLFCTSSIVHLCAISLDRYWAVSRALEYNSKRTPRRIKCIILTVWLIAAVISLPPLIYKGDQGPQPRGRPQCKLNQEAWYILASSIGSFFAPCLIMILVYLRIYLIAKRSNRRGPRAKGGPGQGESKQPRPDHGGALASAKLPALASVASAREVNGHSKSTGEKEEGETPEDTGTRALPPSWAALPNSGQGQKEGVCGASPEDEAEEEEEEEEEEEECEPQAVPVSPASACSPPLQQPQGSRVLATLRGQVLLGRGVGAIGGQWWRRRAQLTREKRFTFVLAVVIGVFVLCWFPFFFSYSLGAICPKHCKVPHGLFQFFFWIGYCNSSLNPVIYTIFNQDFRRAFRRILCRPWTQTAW
Particulars: Type=Antagonist radioligand; read-out: % inhibition of Control specific binding. The procedure: as §1

The next test deals with T12, H2 (h) (Homo sapiens, UniProt P25021).
T12 construct: gene HRH2
T12 sequence (P25021 whole entry): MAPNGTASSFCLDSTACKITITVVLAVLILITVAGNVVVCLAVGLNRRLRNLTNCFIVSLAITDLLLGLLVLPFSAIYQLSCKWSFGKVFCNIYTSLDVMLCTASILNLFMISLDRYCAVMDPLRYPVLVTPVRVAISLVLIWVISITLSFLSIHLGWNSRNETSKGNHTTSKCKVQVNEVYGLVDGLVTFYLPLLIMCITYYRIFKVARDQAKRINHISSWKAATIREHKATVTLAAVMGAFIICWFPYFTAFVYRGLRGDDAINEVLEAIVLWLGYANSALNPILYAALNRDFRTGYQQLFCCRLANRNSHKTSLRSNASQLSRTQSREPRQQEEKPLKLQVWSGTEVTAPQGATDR
To be noted: Type=Antagonist radioligand; read-out: % inhibition of Control specific binding. On the procedure:
as §1

The next test addresses T13, CB1 (h) (Homo sapiens, UniProt P21554).
T13 construct: gene CNR1
To be noted: Type=Agonist radioligand; read-out: % inhibition of Control specific binding. On the procedure:
as §1

Another test deals with T14, A2a (h) (Homo sapiens, UniProt P29274).
T14 construct: gene ADORA2A
To be noted: Type=Agonist radioligand; read-out: % inhibition of Control specific binding. On the procedure:
as §1

The target of the next test is T15, ET-A (h) (Homo sapiens, UniProt P25101).
T15 construct: gene EDNRA
To be noted: Type=Agonist radioligand; read-out: % inhibition of Control specific binding. On the procedure:
as §1

The target in another test is T16, NK2 (h) (Homo sapiens, UniProt P21452).
T16 construct: gene TACR2
To be noted: Type=Agonist radioligand; read-out: % inhibition of Control specific binding. On the procedure:
as §1

Another test deals with T17, GR (h) (Homo sapiens, UniProt P04150).
T17 construct: gene NR3C1
T17 sequence (P04150 whole entry): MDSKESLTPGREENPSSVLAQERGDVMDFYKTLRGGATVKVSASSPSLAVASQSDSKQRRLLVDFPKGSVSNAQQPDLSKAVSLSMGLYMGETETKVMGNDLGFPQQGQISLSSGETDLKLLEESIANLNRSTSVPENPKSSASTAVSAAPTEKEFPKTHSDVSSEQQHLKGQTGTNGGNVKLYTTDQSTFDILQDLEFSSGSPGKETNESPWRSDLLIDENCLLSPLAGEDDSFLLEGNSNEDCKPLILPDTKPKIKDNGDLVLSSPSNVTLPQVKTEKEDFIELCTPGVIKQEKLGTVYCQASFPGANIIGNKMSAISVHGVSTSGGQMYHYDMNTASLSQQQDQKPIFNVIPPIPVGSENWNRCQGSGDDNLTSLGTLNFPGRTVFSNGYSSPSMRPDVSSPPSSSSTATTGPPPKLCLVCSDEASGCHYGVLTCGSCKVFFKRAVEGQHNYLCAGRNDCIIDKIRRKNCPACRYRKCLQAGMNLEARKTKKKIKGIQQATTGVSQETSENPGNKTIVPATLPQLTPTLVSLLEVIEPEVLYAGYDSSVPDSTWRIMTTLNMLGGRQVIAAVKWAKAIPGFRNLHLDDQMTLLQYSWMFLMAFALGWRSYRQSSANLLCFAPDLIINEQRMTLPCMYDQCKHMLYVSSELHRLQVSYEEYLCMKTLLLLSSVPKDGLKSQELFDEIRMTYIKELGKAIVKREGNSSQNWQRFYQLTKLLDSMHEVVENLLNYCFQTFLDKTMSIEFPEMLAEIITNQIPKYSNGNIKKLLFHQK
Particulars: Type=Agonist radioligand; read-out: % inhibition of Control specific binding. On the procedure: as §1

For another test, the target named is T18, M1 (h) (Homo sapiens, UniProt P11229).
T18 construct: gene CHRM1
To be noted: Type=Antagonist radioligand; read-out: % inhibition of Control specific binding. The procedure: as §1

Another test has as its target T19, motilin (h) (Homo sapiens, UniProt O43193).
T19 construct: gene MLNR
To be noted: Type=Agonist radioligand; read-out: % inhibition of Control specific binding. The procedure: as §1

In a further test the target is T20, 5-HT7 (h) (Homo sapiens, UniProt P34969).
T20 construct: gene HTR7
To be noted: Type=Agonist radioligand; read-out: % inhibition of Control specific binding. On the procedure: as §1

The target in the next test is AR (h) (Homo sapiens, UniProt P10275). To be noted: Type=Agonist radioligand; read-out: % inhibition of Control specific binding. On the procedure:
as §1

A further test concerns the target T21, AT2 (h) (Homo sapiens, UniProt P50052).
T21 construct: gene AGTR2
To be noted: Type=Agonist radioligand; read-out: % inhibition of Control specific binding. The procedure:
as §1

T21 sequence (P50052 whole entry): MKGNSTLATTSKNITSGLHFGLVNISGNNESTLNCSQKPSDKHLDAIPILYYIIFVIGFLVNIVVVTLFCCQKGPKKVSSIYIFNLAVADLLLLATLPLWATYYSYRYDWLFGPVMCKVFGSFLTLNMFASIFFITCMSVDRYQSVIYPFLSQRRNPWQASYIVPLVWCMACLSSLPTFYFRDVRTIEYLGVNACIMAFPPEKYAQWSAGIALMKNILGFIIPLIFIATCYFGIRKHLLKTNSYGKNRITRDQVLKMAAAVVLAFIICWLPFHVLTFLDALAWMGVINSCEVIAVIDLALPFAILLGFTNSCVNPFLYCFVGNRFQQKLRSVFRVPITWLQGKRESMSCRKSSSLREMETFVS
AR (h), sequence (P10275 whole entry): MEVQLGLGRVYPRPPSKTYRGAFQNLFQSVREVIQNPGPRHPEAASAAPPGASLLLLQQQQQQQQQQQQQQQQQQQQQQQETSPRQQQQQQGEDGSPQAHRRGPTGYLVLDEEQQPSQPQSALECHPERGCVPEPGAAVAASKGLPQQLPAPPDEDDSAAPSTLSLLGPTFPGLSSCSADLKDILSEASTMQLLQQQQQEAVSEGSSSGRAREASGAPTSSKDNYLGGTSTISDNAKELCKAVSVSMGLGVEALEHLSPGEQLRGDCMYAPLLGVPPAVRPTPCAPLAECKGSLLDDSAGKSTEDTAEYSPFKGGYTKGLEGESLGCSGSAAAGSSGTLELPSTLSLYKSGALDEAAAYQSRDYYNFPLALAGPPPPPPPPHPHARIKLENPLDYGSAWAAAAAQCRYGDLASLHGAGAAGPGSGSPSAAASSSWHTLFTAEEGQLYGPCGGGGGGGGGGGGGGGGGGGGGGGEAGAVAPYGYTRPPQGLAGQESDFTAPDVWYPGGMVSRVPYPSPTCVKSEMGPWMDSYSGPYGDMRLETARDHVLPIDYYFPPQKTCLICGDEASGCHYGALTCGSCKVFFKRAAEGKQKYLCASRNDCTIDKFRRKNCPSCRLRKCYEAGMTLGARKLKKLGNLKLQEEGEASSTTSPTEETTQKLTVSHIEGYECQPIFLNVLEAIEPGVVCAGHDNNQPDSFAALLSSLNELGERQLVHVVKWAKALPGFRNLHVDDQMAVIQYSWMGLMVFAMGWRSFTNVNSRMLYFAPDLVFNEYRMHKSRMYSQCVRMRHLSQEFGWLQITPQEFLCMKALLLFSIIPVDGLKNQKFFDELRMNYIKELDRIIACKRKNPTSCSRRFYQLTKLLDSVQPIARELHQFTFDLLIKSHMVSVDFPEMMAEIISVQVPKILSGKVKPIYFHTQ
T10 sequence (P08173 whole entry): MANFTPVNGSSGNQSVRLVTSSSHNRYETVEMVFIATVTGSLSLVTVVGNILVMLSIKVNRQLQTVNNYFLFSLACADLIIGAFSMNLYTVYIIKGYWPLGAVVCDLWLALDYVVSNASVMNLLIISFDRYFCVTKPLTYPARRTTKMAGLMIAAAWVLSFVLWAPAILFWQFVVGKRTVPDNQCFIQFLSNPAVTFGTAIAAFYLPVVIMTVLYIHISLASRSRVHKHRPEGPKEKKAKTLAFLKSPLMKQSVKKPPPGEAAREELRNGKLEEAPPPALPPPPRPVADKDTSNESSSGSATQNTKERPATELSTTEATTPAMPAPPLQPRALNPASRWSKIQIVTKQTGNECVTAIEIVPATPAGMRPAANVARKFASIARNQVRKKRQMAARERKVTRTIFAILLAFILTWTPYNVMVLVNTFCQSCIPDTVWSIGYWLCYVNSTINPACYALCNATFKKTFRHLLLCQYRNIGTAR
T1 sequence (P0DMS8 whole entry): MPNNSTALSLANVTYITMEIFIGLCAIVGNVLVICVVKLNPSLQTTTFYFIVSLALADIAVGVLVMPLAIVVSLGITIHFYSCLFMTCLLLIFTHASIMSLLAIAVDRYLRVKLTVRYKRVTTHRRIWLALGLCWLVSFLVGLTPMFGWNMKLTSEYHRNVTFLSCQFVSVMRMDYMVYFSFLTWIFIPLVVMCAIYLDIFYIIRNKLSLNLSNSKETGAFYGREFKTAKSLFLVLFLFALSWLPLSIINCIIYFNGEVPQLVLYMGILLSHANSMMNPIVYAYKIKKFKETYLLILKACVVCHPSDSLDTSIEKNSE

For `O=C(COc1ccc(Cl)c(F)c1)NC12CC(NC(=O)c3cnc(C(F)F)cn3)(C1)C2` [2BAct], the inhibition at 10 µM on A3 (h) is 20.6%; at dopamine transporter (h) it was 53.2%; on M3 (h), -0.9%; at M2 (h), 4.2%; on 5-HT3 (h) it was 9.2%; at 5-HT transporter (h) it was 7.9%. Further, the inhibition at 10 µM on D2S (h) is 1.3%; on A2b (h) [1], 50.1%; at CB2 (h) it was 2%; at M4 (h) it was 11%; on a2B (h) [2], 12.2%; at H2 (h), -17.4%. The inhibition at 10 µM at CB1 (h) was 8.3%; on A2a (h), 24.8%; at ET-A (h) it was -5.3%; at NK2 (h), 12%; on GR (h), 3.2%; on M1 (h) it was 2.6%. Moreover, the inhibition at 10 µM on motilin (h) is -10.8%; on 5-HT7 (h) it was 3.9%; on AR (h), -0.2%; on AT2 (h), 0.2%.
